Measured values published in ChEMBL document CHEMBL1135222, “Anionic cyclophanes as potential reversal agents of muscle relaxants by chemical chelation” (Bioorg Med Chem Lett, 2002).

Columns and labels:
Format in all cases: functional, organism-based
Gallus gallus [1] = species: Gallus gallus; test: Concentration that produced 50% reversal of gallamine induced neuromuscular block in the chick biventer assay
Gallus gallus [2] = species: Gallus gallus; test: Concentration that produced 50% reversal of pancuronium induced neuromuscular block in the chick biventer assay
Gallus gallus [3] = species: Gallus gallus; test: Tested for association constant against gallamine relaxant in chick biventer muscle preparation
Gallus gallus [4] = species: Gallus gallus; test: Tested for association constant against pancuronium relaxant in chick biventer muscle preparation
Gallus gallus [5] = species: Gallus gallus; test: Tested for the reversion of vecuronium-induced block in chick biventer assay

Structure (SMILES)	EC50 (Gallus gallus [1])	EC50 (Gallus gallus [2])	Ka (Gallus gallus [3])	Ka (Gallus gallus [4])	EC50 (Gallus gallus [5])
O=C(O)c1cc2ccc1OCc1ccc(cc1)COc1ccc(cc1C(=O)O)Cc1ccc(c(C(=O)O)c1)OCc1ccc(cc1)COc1ccc(cc1C(=O)O)C2	563 µM	292 µM	3280 M⁻¹	2500 M⁻¹	–
O=C(O)c1cc2ccc1OCCCCCOc1ccc(cc1C(=O)O)Cc1ccc(c(C(=O)O)c1)OCCCCCOc1ccc(cc1C(=O)O)C2	1030 µM	142 µM	608 M⁻¹	167 M⁻¹	–
CN(C)C(=O)Oc1cccc([N+](C)(C)C)c1 [NEOSTIGMINE BROMIDE]	–	–	–	–	0.028 µM
O=C(O)c1cc2ccc1OCc1ccc3cc(ccc3c1)COc1ccc(cc1C(=O)O)Cc1ccc(c(C(=O)O)c1)OCc1ccc3cc(ccc3c1)COc1ccc(cc1C(=O)O)C2	104 µM	40 µM	13200 M⁻¹	10400 M⁻¹	–
